# In ChEMBL document CHEMBL2440076, “New triarylpyrazoles as broad-spectrum anticancer agents: design, synthesis, and biological evaluation” (Eur J Med Chem, 2013):
# Tests used:
# Assay type in all cases: functional
# [1] = system: HT-29; test: Growth inhibition of human HT-29 cells assessed as cell growth at 5X10'-9 M after 48 hrs by sulforhodamine B assay; settings: HT-29, 48 h, read-out: Activity
# [2] = system: KM12; test: Growth inhibition of human KM12 cells assessed as cell growth at 5X10'-9 M after 48 hrs by sulforhodamine B assay; settings: KM12, 48 h, read-out: Activity
# [3] = system: SNB-19; test: Growth inhibition of human SNB19 cells assessed as cell growth at 5X10'-5 M after 48 hrs by sulforhodamine B assay; settings: SNB-19, 48 h, read-out: Activity
# [4] = system: SF-539; test: Growth inhibition of human SF539 cells assessed as cell growth at 5X10'-5 M after 48 hrs by sulforhodamine B assay; settings: SF-539, 48 h, read-out: Activity
# [5] = system: BT-549; test: Growth inhibition of human BT549 cells assessed as cell growth at 5X10'-6 M after 48 hrs by sulforhodamine B assay; settings: BT-549, 48 h, read-out: Activity
# [6] = system: 786-0; test: Growth inhibition of human 786-0 cells assessed as cell growth at 5X10'-6 M after 48 hrs by sulforhodamine B assay; settings: 786-0, 48 h, read-out: Activity
# [7] = system: UACC-257; test: Growth inhibition of human UACC257 cells assessed as cell growth at 5X10'-6 M after 48 hrs by sulforhodamine B assay; settings: UACC-257, 48 h, read-out: Activity
# [8] = system: SR; test: Growth inhibition of human SR cells assessed as cell growth at 5X10'-9 M after 48 hrs by sulforhodamine B assay; settings: read-out: Activity
# [9] = system: KM12; test: Growth inhibition of human KM12 cells assessed as cell growth at 5X10'-6 M after 48 hrs by sulforhodamine B assay; settings: KM12, 48 h, read-out: Activity
# [10] = system: NCI-H460; test: Growth inhibition of human NCI-H460 cells assessed as cell growth at 5X10'-6 M after 48 hrs by sulforhodamine B assay; settings: NCI-H460, 48 h, read-out: Activity
# [11] = system: HOP-92; test: Growth inhibition of human HOP92 cells assessed as cell growth at 5X10'-6 M after 48 hrs by sulforhodamine B assay; settings: HOP-92, 48 h, read-out: Activity
# [12] = system: MOLT-4; test: Growth inhibition of human MOLT4 cells assessed as cell growth at 5X10'-6 M after 48 hrs by sulforhodamine B assay; settings: MOLT-4, 48 h, read-out: Activity
# [13] = system: MDA-MB-468; test: Growth inhibition of human MDA-MB-468 cells assessed as cell growth at 5X10'-7 M after 48 hrs by sulforhodamine B assay; settings: MDA-MB-468, 48 h, read-out: Activity
# [14] = system: MDA-MB-231; test: Growth inhibition of human MDA-MB-231 cells assessed as cell growth at 5X10'-7 M after 48 hrs by sulforhodamine B assay; settings: MDA-MB-231, 48 h, read-out: Activity
# [15] = system: CAKI-1; test: Growth inhibition of human CAKI-1 cells assessed as cell growth at 5X10'-7 M after 48 hrs by sulforhodamine B assay; settings: CAKI-1, 48 h, read-out: Activity
# [16] = system: IGROV-1; test: Growth inhibition of human IGROV1 cells assessed as cell growth at 5X10'-7 M after 48 hrs by sulforhodamine B assay; settings: IGROV-1, 48 h, read-out: Activity
# [17] = system: SK-MEL-5; test: Growth inhibition of human SK-MEL-5 cells assessed as cell growth at 5X10'-7 M after 48 hrs by sulforhodamine B assay; settings: SK-MEL-5, 48 h, read-out: Activity
# [18] = system: UACC-257; test: Growth inhibition of human UACC257 cells assessed as cell growth at 5X10'-7 M after 48 hrs by sulforhodamine B assay; settings: UACC-257, 48 h, read-out: Activity
# [19] = system: MDA-MB-435; test: Growth inhibition of human MDA-MB-435 cells assessed as cell growth at 5X10'-7 M after 48 hrs by sulforhodamine B assay; settings: MDA-MB-435, 48 h, read-out: Activity
# [20] = system: SF-268; test: Growth inhibition of human SF268 cells assessed as cell growth at 5X10'-7 M after 48 hrs by sulforhodamine B assay; settings: SF-268, 48 h, read-out: Activity
# [21] = system: HCT-15; test: Growth inhibition of human HCT15 cells assessed as cell growth at 5X10'-7 M after 48 hrs by sulforhodamine B assay; settings: HCT-15, 48 h, read-out: Activity
# [22] = Growth inhibition of human HCC2998 cells assessed as cell growth at 5X10'-7 M after 48 hrs by sulforhodamine B assay; settings: HCC 2998, 48 h, read-out: Activity
# [23] = system: RXF 393; test: Growth inhibition of human RXF393 cells assessed as cell growth at 5X10'-8 M after 48 hrs by sulforhodamine B assay; settings: RXF 393, 48 h, read-out: Activity
# [24] = system: U-251; test: Growth inhibition of human U251 cells assessed as cell growth at 5X10'-8 M after 48 hrs by sulforhodamine B assay; settings: U-251, 48 h, read-out: Activity
# [25] = system: DU-145; test: Growth inhibition of human DU145 cells assessed as cell growth at 5X10'-5 M after 48 hrs by sulforhodamine B assay; settings: DU-145, 48 h, read-out: Activity
# [26] = system: SK-OV-3; test: Growth inhibition of human SKOV3 cells assessed as cell growth at 5X10'-5 M after 48 hrs by sulforhodamine B assay; settings: SK-OV-3, 48 h, read-out: Activity
# [27] = system: IGROV-1; test: Growth inhibition of human IGROV1 cells assessed as cell growth at 5X10'-5 M after 48 hrs by sulforhodamine B assay; settings: IGROV-1, 48 h, read-out: Activity
# [28] = system: SK-MEL-5; test: Growth inhibition of human SK-MEL-5 cells assessed as cell growth at 5X10'-5 M after 48 hrs by sulforhodamine B assay; settings: SK-MEL-5, 48 h, read-out: Activity
# [29] = system: A549; test: Growth inhibition of human A549/ATCC cells assessed as cell growth at 5X10'-8 M after 48 hrs by sulforhodamine B assay; settings: A549, 48 h, read-out: Activity
# [30] = system: 786-0; test: Growth inhibition of human 786-0 cells assessed as cell growth at 5X10'-9 M after 48 hrs by sulforhodamine B assay; settings: 786-0, 48 h, read-out: Activity
# [31] = system: OVCAR-5; test: Growth inhibition of human OVCAR5 cells assessed as cell growth at 5X10'-9 M after 48 hrs by sulforhodamine B assay; settings: OVCAR-5, 48 h, read-out: Activity
# [32] = system: OVCAR-4; test: Growth inhibition of human OVCAR4 cells assessed as cell growth at 5X10'-9 M after 48 hrs by sulforhodamine B assay; settings: OVCAR-4, 48 h, read-out: Activity
# [33] = system: LOX IMVI; test: Growth inhibition of human LOXIMVI cells assessed as cell growth at 5X10'-9 M after 48 hrs by sulforhodamine B assay; settings: read-out: Activity
# [34] = system: SF-295; test: Growth inhibition of human SF295 cells assessed as cell growth at 5X10'-9 M after 48 hrs by sulforhodamine B assay; settings: SF-295, 48 h, read-out: Activity
# [35] = system: SW-620; test: Growth inhibition of human SW620 cells assessed as cell growth at 5X10'-9 M after 48 hrs by sulforhodamine B assay; settings: SW-620, 48 h, read-out: Activity
SMILES,growth at 0.005 µM [1] [%],growth at 0.005 µM [2] [%],growth at 50 µM [3] [%],growth at 50 µM [4] [%],growth at 5 µM [5] [%],growth at 5 µM [6] [%],growth at 5 µM [7] [%],growth at 0.005 µM [8] [%],growth at 5 µM [9] [%],growth at 5 µM [10] [%],growth at 5 µM [11] [%],growth at 5 µM [12] [%],growth at 0.5 µM [13] [%],growth at 0.5 µM [14] [%],growth at 0.5 µM [15] [%],growth at 0.5 µM [16] [%],growth at 0.5 µM [17] [%],growth at 0.5 µM [18] [%],growth at 0.5 µM [19] [%],growth at 0.5 µM [20] [%],further results
COc1cc(-c2nn(-c3cccc(NC(=O)c4cccc(C(F)(F)F)c4)c3)cc2-c2ccncc2)ccc1Cl,96,100,28,-23,34,27,56,96,14,4,-14,23,89,77,90,86,86,87,69,88,growth at 0.5 µM [21]: 84%; growth at 0.5 µM [22]: 105%; growth at 0.05 µM [23]: 99%; growth at 0.05 µM [24]: 94%; growth at 50 µM [25]: -4%; growth at 50 µM [26]: 17%; growth at 50 µM [27]: 5%; growth at 50 µM [28]: -51%; growth at 0.05 µM [29]: 98%; growth at 0.005 µM [30]: 95%; growth at 0.005 µM [31]: 95%; growth at 0.005 µM [32]: 94%; growth at 0.005 µM [33]: 94%; growth at 0.005 µM [34]: 94%; growth at 0.005 µM [35]: 99%
COc1cc(-c2nn(-c3cccc(NC(=O)Nc4cccc(C(F)(F)F)c4)c3)cc2-c2ccncc2)ccc1Cl,99,104,-18,-58,-12,-9,-42,93,-37,-11,-45,-14,57,73,79,85,78,83,80,87,growth at 0.5 µM [21]: 66%; growth at 0.5 µM [22]: 94%; growth at 0.05 µM [23]: 101%; growth at 0.05 µM [24]: 98%; growth at 50 µM [25]: 1%; growth at 50 µM [26]: 2%; growth at 50 µM [27]: -43%; growth at 50 µM [28]: -97%; growth at 0.05 µM [29]: 97%; growth at 0.005 µM [30]: 95%; growth at 0.005 µM [31]: 84%; growth at 0.005 µM [32]: 99%; growth at 0.005 µM [33]: 95%; growth at 0.005 µM [34]: 96%; growth at 0.005 µM [35]: 98%
